Measured values: PubChem BioAssay (NCI)
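GI50 marks 50% less growth. At the TGI there is no net growth.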

Key:
Assay in all cases: DTP human tumour cell line panel, 384-well format
HOP-62 NSCLC = test system: HOP-62 NSCLC
SK-MEL-2 melanoma = test system: SK-MEL-2 melanoma
MDA-MB-468 breast = test system: MDA-MB-468 breast
M14 melanoma = test system: M14 melanoma
MCF7 breast = test system: MCF7 breast
HT29 colon = test system: HT29 colon
SNB-19 CNS = test system: SNB-19 CNS
CAKI-1 renal = test system: CAKI-1 renal
NCI-H460 NSCLC = test system: NCI-H460 NSCLC
SK-MEL-5 melanoma = test system: SK-MEL-5 melanoma
MDA-MB-435 melanoma = test system: MDA-MB-435 melanoma
A498 renal = test system: A498 renal
HCC-2998 colon = test system: HCC-2998 colon
ACHN renal = test system: ACHN renal
SK-MEL-28 melanoma = test system: SK-MEL-28 melanoma
MALME-3M melanoma = test system: MALME-3M melanoma
BT-549 breast = test system: BT-549 breast
CCRF-CEM leukemia = test system: CCRF-CEM leukemia
SW-620 colon = test system: SW-620 colon
UACC-257 melanoma = test system: UACC-257 melanoma
NCI-H226 lung = test system: NCI-H226 lung
UACC-62 melanoma = test system: UACC-62 melanoma
HS 578T breast = test system: HS 578T breast
EKVX NSCLC = test system: EKVX NSCLC
786-0 renal = test system: 786-0 renal
COLO 205 colon = test system: COLO 205 colon
NCI-H23 lung = test system: NCI-H23 lung
SF-268 CNS = test system: SF-268 CNS

`O=P(O)(O)C(O)(Cn1ccnc1)P(=O)(O)O` was tested, and the GI50 (HOP-62 NSCLC) was > 100 µM, the TGI (HOP-62 NSCLC) was > 100 µM and the GI50 (SK-MEL-2 melanoma) was > 100 µM. The TGI (SK-MEL-2 melanoma) was > 100 µM, the GI50 (MDA-MB-468 breast) was > 100 µM and the TGI (MDA-MB-468 breast) was > 100 µM. The GI50 (M14 melanoma) was > 100 µM, the TGI (M14 melanoma) was > 100 µM and the GI50 (MCF7 breast) was > 100 µM. For the same compound, the TGI (MCF7 breast) was > 100 µM, the GI50 (HT29 colon) was > 100 µM and the TGI (HT29 colon) was > 100 µM. For the same compound, the GI50 (SNB-19 CNS) was > 100 µM, the TGI (SNB-19 CNS) was > 100 µM and the GI50 (CAKI-1 renal) was > 100 µM. For the same compound, the TGI (CAKI-1 renal) was > 100 µM, the GI50 (NCI-H460 NSCLC) was > 100 µM and the TGI (NCI-H460 NSCLC) was > 100 µM. For the same compound, the GI50 (SK-MEL-5 melanoma) was > 100 µM, the TGI (SK-MEL-5 melanoma) was > 100 µM and the GI50 (MDA-MB-435 melanoma) was > 100 µM. The TGI (MDA-MB-435 melanoma) was > 100 µM, the GI50 (A498 renal) was > 100 µM and the TGI (A498 renal) was > 100 µM. For the same compound, the GI50 (HCC-2998 colon) was > 100 µM, the TGI (HCC-2998 colon) was > 100 µM and the GI50 (ACHN renal) was > 100 µM. The TGI (ACHN renal) was > 100 µM, the GI50 (SK-MEL-28 melanoma) was > 100 µM and the TGI (SK-MEL-28 melanoma) was > 100 µM. For the same compound, the GI50 (MALME-3M melanoma) was > 100 µM, the TGI (MALME-3M melanoma) was > 100 µM and the GI50 (BT-549 breast) was > 100 µM. The TGI (BT-549 breast) was > 100 µM, the GI50 (CCRF-CEM leukemia) was > 100 µM and the TGI (CCRF-CEM leukemia) was > 100 µM. For the same compound, the GI50 (SW-620 colon) was > 100 µM, the TGI (SW-620 colon) was > 100 µM and the GI50 (UACC-257 melanoma) was > 100 µM. For the same compound, the TGI (UACC-257 melanoma) was > 100 µM, the GI50 (NCI-H226 lung) was > 100 µM and the TGI (NCI-H226 lung) was > 100 µM. The GI50 (UACC-62 melanoma) was > 100 µM, the TGI (UACC-62 melanoma) was > 100 µM and the GI50 (HS 578T breast) was > 100 µM. For the same compound, the TGI (HS 578T breast) was > 100 µM, the GI50 (EKVX NSCLC) was > 100 µM and the TGI (EKVX NSCLC) was > 100 µM. The GI50 (786-0 renal) was > 100 µM, the TGI (786-0 renal) was > 100 µM and the GI50 (COLO 205 colon) was > 100 µM. For the same compound, the TGI (COLO 205 colon) was > 100 µM, the GI50 (NCI-H23 lung) was > 100 µM and the TGI (NCI-H23 lung) was > 100 µM. The GI50 (SF-268 CNS) was > 100 µM and the TGI (SF-268 CNS) was > 100 µM.
